Target: PCSK9 (proprotein convertase subtilisin/kexin type-9) (Homo sapiens, UniProt Q8NBP7)
Assay: SPR with immobilized PCSK9
Type: binding

- Kd: 23.4 µM
Structure (SMILES): CC/C=C\[C@H](O)[C@H](O)C1=C(C)C(=O)[C@]2(O1)C(=O)N[C@@](OC)(C(=O)c1ccccc1)[C@@H]2O [PS, Pseurotin A]

From article PMC8045554 (Pharmacological research, 2020)
